Laboratory results: paper PMC3961306, “Comparison of the Cancer Gene Targeting and Biochemical Selectivities of All Targeted Kinase Inhibitors Approved for Clinical Use” (PLoS ONE, 2014)

Key:
Assay in all cases: Kinase profiling in a biochemical assay panel (mobility shift assays and ELISA), %-inhibition at 1 μM; selectivity entropy
[1] = molecular target: T1, panel of more than 300 wild-type and mutant kinases (313 kinase panel) (Homo sapiens, UniProt Q96BR1); conditions: kinase SGK3; 1 μM
T1 sequence (Q96BR1 1-496): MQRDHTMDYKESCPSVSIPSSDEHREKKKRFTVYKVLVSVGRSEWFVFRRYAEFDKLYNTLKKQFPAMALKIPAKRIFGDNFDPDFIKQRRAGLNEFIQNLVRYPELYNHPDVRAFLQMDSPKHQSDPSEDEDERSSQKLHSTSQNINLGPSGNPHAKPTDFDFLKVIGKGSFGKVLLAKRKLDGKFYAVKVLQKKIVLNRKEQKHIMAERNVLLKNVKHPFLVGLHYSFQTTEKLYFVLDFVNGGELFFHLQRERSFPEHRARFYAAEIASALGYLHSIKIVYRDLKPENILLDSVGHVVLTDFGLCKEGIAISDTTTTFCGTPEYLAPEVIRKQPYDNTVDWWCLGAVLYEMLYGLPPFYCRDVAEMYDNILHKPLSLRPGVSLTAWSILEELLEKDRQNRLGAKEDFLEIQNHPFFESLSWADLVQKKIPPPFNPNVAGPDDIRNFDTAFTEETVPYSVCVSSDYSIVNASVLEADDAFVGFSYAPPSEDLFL

[2] = molecular target: T2, panel of more than 300 wild-type and mutant kinases (313 kinase panel) (Homo sapiens, UniProt O00141); conditions: kinase SGK; 1 μM
T2 sequence (O00141 1-431): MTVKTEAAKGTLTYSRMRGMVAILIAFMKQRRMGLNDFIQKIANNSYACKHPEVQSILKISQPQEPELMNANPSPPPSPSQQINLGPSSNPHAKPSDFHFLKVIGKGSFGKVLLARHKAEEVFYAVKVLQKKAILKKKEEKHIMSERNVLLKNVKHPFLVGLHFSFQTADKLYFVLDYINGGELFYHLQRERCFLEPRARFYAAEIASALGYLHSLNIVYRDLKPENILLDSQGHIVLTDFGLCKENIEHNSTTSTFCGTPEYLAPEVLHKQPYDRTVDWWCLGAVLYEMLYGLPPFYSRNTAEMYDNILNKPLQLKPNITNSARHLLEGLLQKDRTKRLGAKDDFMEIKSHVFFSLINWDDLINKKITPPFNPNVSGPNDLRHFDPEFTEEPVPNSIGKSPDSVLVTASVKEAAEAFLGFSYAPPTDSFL

[3] = molecular target: panel of more than 300 wild-type and mutant kinases (313 kinase panel) (Homo sapiens, UniProt P19525)
[4] = molecular target: T3, panel of more than 300 wild-type and mutant kinases (313 kinase panel) (Homo sapiens, UniProt P45985); conditions: kinase MAP2K4; compound at 1 μM
T3 sequence (P45985 1-399): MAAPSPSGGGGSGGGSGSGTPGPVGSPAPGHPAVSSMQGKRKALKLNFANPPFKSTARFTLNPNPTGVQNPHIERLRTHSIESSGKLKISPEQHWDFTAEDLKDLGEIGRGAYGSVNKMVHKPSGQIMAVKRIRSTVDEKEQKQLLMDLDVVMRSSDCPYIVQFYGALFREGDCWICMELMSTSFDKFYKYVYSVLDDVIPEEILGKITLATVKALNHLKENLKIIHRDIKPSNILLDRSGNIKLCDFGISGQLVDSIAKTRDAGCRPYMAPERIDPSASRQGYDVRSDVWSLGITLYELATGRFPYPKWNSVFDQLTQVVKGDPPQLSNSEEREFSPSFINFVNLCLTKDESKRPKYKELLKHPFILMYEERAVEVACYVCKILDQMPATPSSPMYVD

[5] = molecular target: T4, panel of more than 300 wild-type and mutant kinases (313 kinase panel) (Homo sapiens, UniProt O15264); conditions: kinase p38δ; 1 μM
T4 sequence (O15264 1-365): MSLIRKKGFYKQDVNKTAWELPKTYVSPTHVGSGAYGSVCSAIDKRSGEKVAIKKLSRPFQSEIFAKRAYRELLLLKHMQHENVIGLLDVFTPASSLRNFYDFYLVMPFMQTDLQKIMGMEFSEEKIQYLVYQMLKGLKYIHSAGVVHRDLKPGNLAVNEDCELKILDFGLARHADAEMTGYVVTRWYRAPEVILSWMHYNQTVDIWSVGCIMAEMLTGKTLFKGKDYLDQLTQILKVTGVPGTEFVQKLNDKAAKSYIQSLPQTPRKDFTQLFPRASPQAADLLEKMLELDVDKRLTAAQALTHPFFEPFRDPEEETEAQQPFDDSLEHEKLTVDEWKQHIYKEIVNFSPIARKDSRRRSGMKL

[6] = molecular target: panel of more than 300 wild-type and mutant kinases (313 kinase panel) (Homo sapiens, UniProt O96013)
[7] = molecular target: panel of more than 300 wild-type and mutant kinases (313 kinase panel) (Homo sapiens, UniProt Q13464)
[8] = molecular target: panel of more than 300 wild-type and mutant kinases (313 kinase panel) (Homo sapiens, UniProt Q9Y6R4); conditions: kinase MAP3K4; compound at 1 μM
panel of more than 300 wild-type and mutant kinases (313 kinase panel) (Homo sapiens, UniProt Q9Y6R4), sequence (Q9Y6R4 whole entry, change not shown): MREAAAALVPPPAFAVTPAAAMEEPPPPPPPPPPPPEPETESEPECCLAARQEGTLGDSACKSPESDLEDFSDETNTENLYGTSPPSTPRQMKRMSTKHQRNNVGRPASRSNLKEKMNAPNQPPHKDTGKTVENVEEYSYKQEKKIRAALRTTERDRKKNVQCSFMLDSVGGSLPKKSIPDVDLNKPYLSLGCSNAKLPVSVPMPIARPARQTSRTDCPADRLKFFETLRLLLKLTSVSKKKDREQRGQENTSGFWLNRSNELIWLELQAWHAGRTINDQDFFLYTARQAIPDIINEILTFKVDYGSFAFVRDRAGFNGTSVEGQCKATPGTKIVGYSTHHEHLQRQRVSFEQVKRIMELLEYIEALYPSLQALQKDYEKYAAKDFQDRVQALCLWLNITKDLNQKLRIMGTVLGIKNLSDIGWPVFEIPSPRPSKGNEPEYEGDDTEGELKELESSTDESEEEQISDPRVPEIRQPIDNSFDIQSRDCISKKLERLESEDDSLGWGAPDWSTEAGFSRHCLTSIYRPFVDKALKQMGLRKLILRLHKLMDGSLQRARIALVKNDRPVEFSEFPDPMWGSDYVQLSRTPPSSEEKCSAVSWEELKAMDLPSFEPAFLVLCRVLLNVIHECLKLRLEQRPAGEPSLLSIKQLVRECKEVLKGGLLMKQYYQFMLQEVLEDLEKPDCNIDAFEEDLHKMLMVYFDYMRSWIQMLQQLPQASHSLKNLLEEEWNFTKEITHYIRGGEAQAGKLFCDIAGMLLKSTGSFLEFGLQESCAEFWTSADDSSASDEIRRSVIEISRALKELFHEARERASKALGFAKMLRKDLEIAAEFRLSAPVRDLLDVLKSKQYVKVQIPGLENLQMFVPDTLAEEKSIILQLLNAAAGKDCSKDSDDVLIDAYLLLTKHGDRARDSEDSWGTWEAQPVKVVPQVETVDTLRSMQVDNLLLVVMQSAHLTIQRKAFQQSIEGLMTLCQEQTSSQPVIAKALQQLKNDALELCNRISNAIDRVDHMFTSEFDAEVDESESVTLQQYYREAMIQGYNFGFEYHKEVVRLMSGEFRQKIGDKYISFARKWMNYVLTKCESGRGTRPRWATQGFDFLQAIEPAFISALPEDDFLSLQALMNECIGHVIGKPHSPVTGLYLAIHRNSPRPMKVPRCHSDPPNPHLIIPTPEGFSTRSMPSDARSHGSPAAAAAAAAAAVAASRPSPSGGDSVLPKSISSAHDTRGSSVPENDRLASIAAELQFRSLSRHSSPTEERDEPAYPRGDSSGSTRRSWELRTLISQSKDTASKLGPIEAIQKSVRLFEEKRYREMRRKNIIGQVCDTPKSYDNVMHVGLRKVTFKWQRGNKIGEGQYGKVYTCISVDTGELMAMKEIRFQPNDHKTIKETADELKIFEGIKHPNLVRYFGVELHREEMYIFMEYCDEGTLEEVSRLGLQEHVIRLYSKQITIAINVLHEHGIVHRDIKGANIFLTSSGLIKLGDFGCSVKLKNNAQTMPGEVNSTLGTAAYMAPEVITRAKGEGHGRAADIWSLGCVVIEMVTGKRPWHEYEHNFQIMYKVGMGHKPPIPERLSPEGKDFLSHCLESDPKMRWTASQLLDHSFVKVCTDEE

CO[C@H]1C[C@@H]2CC[C@@H](C)[C@@](O)(O2)C(=O)C(=O)N2CCCC[C@H]2C(=O)O[C@H]([C@H](C)C[C@@H]2CC[C@@H](OCCO)[C@H](OC)C2)CC(=O)[C@H](C)/C=C(\C)[C@@H](O)[C@@H](OC)C(=O)[C@H](C)C[C@H](C)/C=C/C=C/C=C/1C [everolimus]
%-inhibition of SGK3 [1]: -6.4% | %-inhibition of SGK [2]: -6.59% | %-inhibition of PKR ([3]; kinase PKR, 1 μM): -8.45% | %-inhibition of MAP2K4 [4]: 1.55% | %-inhibition of p38δ [5]: -9% | %-inhibition of PAK4 ([6]; kinase PAK4, 1 μM): -4% | %-inhibition of ROCK1 ([7]; kinase ROCK1, 1 μM): -3.7% | %-inhibition of MAP3K4 [8]: -1.11%

Cc1cn(-c2cc(NC(=O)c3ccc(C)c(Nc4nccc(-c5cccnc5)n4)c3)cc(C(F)(F)F)c2)cn1 [nilotinib]
%-inhibition of SGK3 [1]: 15% | %-inhibition of SGK [2]: 9% | %-inhibition of PKR ([3]; 1 µM): 0% | %-inhibition of MAP2K4 [4]: -4.54% | %-inhibition of p38δ [5]: -10% | %-inhibition of PAK4 ([6]; 1 µM): -21% | %-inhibition of ROCK1 ([7]; 1 µM): -17% | %-inhibition of MAP3K4 [8]: -18%

CNC(=O)c1cc(Oc2ccc(NC(=O)Nc3ccc(Cl)c(C(F)(F)F)c3)c(F)c2)ccn1 [regorafenib]
%-inhibition of SGK3 [1]: -8% | %-inhibition of SGK [2]: -5.37% | %-inhibition of PKR ([3]; kinase PKR, 1 μM): -4.48% | %-inhibition of MAP2K4 [4]: 0.434% | %-inhibition of p38δ [5]: 2.22% | %-inhibition of PAK4 ([6]; kinase PAK4, 1 μM): -15% | %-inhibition of ROCK1 ([7]; kinase ROCK1, 1 μM): 11% | %-inhibition of MAP3K4 [8]: -9%

N#CC[C@H](C1CCCC1)n1cc(-c2ncnc3[nH]ccc23)cn1 [ruxolitinib]
%-inhibition of SGK3 [1]: -5% | %-inhibition of SGK [2]: -2.44% | %-inhibition of PKR ([3]; kinase PKR, 1 μM): -6% | %-inhibition of MAP2K4 [4]: 10% | %-inhibition of p38δ [5]: 0.0923% | %-inhibition of PAK4 ([6]; kinase PAK4, 1 μM): 0.371% | %-inhibition of ROCK1 ([7]; 1 µM): 66% | %-inhibition of MAP3K4 [8]: -4%

CO[C@H]1C[C@@H]2CC[C@@H](C)[C@@](O)(O2)C(=O)C(=O)N2CCCC[C@H]2C(=O)O[C@H]([C@H](C)C[C@@H]2CC[C@@H](OC(=O)C(C)(CO)CO)[C@H](OC)C2)CC(=O)[C@H](C)/C=C(\C)[C@@H](O)[C@@H](OC)C(=O)[C@H](C)C[C@H](C)/C=C/C=C/C=C/1C [temsirolimus]
%-inhibition of SGK3 [1]: -4% | %-inhibition of SGK [2]: -3.17% | %-inhibition of PKR ([3]; kinase PKR, 1 μM): -14% | %-inhibition of MAP2K4 [4]: 8.51% | %-inhibition of p38δ [5]: -5.63% | %-inhibition of PAK4 ([6]; kinase PAK4, 1 μM): -19% | %-inhibition of ROCK1 ([7]; kinase ROCK1, 1 μM): -0.679% | %-inhibition of MAP3K4 [8]: 11%

CC(=O)Nc1cccc(-n2c(=O)n(C3CC3)c(=O)c3c(Nc4ccc(I)cc4F)n(C)c(=O)c(C)c32)c1 [trametinib]
%-inhibition of SGK3 [1]: 0.769% | %-inhibition of SGK [2]: 0.217% | %-inhibition of PKR ([3]; kinase PKR, 1 μM): 1.13% | %-inhibition of MAP2K4 [4]: 2.18% | %-inhibition of p38δ [5]: -2.7% | %-inhibition of PAK4 ([6]; kinase PAK4, 1 μM): -0.675% | %-inhibition of ROCK1 ([7]; kinase ROCK1, 1 μM): 3.21% | %-inhibition of MAP3K4 [8]: 6%

COc1cc2c(Nc3ccc(Br)cc3F)ncnc2cc1OCC1CCN(C)CC1 [vandetanib]
%-inhibition of SGK3 [1]: -8% | %-inhibition of SGK [2]: -4.51% | %-inhibition of PKR ([3]; kinase PKR, 1 μM): -1.09% | %-inhibition of MAP2K4 [4]: -2.77% | %-inhibition of p38δ [5]: 0.0923% | %-inhibition of PAK4 ([6]; kinase PAK4, 1 μM): -11% | %-inhibition of ROCK1 ([7]; kinase ROCK1, 1 μM): -0.226% | %-inhibition of MAP3K4 [8]: -10%
